The results in this text go back to PubChem BioAssay (NCI).

Structures are written as SMILES.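 48-hour exposure; five concentrations; linearly interpolated endpoints. The concentration for 50% growth inhibition is given as GI50. TGI denotes the concentration required for complete inhibition of growth.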

Common to all, as to assay: inhibition of tumour cell growth, NCI panel, 48 h
The test system of assay [1] is 786-0 renal.
For assay [2], the system named is CAKI-1 renal.
The subject of assay [3] is DU-145 prostate.
Assay [4] has as its system HOP-62 NSCLC.
In assay [5] the test system is HOP-92 NSCLC.
Assay [6] deals with IGROV1 ovarian.
For assay [7], the system named is MDA-MB-231 breast.
Assay [8] deals with OVCAR-3 ovarian.
The subject of assay [9] is RXF 393 renal.
In assay [10] the test system is SF-295 CNS.

With `Cc1ccc(-c2cc(O)c(-c3ccc(C)cc3C)cc2O)c(C)c1`, the GI50 in [1] is 7.65 µM; in assay [2], 3.41 µM; in assay [3], 11.2 µM; in assay [4], 11.2 µM; in assay [5] it was 5.44 µM; in assay [6] it was 8.25 µM. Moreover, the GI50 in assay [7] was 3.94 µM; in assay [8] it was 7.17 µM; in assay [9], 5.6 µM; in assay [10] it was 6.96 µM. The TGI in assay [1] was determined as 21.2 µM; in assay [2] it was 34.3 µM; in [3], 28.2 µM; in [4] it was 25.9 µM; in [5] it was 28.9 µM; in assay [6] it was 39 µM. Further, the TGI in [7] stood at 21 µM; in [8], 22.4 µM; in assay [9] it was 19.7 µM; in [10], 36.1 µM.

As to `O=C(CCc1ccc(O)cc1)N/N=C/c1cc(Br)ccc1O`, the GI50 was 3.73 µM in [1]; 1.95 µM in assay [2]; 3.4 µM in assay [3]; 6.76 µM in assay [4]; 4.9 µM in assay [5]; 6.23 µM in assay [6]. Also, the GI50 was 4.45 µM in assay [7], 4.03 µM in assay [8], 6.51 µM in assay [9] and 3.25 µM in assay [10]. The TGI is 70.7 µM in assay [1]; 8.99 µM in assay [2]; above 100 µM in assay [3]; 57.6 µM in assay [4]; 49.3 µM in assay [5]; 93.3 µM in assay [6]. Also, the TGI is 53.6 µM in assay [7], 23.6 µM in assay [8], above 100 µM in assay [9] and above 100 µM in assay [10].
